Publication PMC5766609 (Scientific Reports, 2018)
Residues, ends and D or L forms follow the SMILES beside them.

What was measured:
[1] = target: T1, human glucagon receptor (GCGR) (Homo sapiens, UniProt P47871); assay: cAMP assay on CHO-JumpIn cells stably transfected with human glucagon receptor (HitHunter cAMP); type: cell-based; conditions: for EC50: Table 2, cAMP accumulation, CHO-JumpIn cells with human GCGR, buffer PBS, 0.1% BSA, 100 μM RO 20-1724, 20% serum, 1 hr at RT, value ± spread, read-out: EC50 GCGR;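 as to all read-outs here: peptides tested as 4-fold serial dilutions starting from a 2 µM solution, cells exposed 1 hr at RT in darkness, cAMP quantified against a cAMP standard curve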
T1 construct: expressed in transfected cells; host or cells: CHO-JumpIn cells, stably transfected
Procedure: (§1) Briefly, a 2 μM solution of peptide was prepared, and 4-fold serial dilutions were made. 150 nL of the above titration was then dispensed into an Optiplate384 using an Echo555. […] The HitHunter® cAMP Assay kit calibration curve was prepared following the manufacturer’s protocol (DiscoveRx-90-0075L). 30,000 cells/well were added to the peptides, spun briefly at 500 rpm for 15 s and incubated at RT in the dark for 1 hr. The assay was developed as per the manufacturer’s instructions. cAMP accumulation due to GLP1R agonism or GCGR agonism was measured using an EnVision platereader (PerkinElmer), and calibrated using the cAMP standard curve. Data were analyzed using Assay Data Analyzer (ADA).

[2] = target: T2, human GLP-1 receptor (GLP1R) (Homo sapiens, UniProt P43220); assay: cAMP assay on CHO-JumpIn cells stably transfected with human GLP-1 receptor (HitHunter cAMP); type: cell-based; conditions: Table 2, cAMP accumulation, buffer PBS, 0.1% BSA, 100 μM RO 20-1724, 20% serum, 1 hr at RT, value ± spread, read-out: EC50 GLP1R;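 also: peptides tested as 4-fold serial dilution series, cells exposed 1 hr at RT in the dark, cAMP quantified against a cAMP standard calibration curve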
T2 construct: expressed in transfected cells; host or cells: CHO-JumpIn cells, stably transfected
T2 sequence (P43220 24-463): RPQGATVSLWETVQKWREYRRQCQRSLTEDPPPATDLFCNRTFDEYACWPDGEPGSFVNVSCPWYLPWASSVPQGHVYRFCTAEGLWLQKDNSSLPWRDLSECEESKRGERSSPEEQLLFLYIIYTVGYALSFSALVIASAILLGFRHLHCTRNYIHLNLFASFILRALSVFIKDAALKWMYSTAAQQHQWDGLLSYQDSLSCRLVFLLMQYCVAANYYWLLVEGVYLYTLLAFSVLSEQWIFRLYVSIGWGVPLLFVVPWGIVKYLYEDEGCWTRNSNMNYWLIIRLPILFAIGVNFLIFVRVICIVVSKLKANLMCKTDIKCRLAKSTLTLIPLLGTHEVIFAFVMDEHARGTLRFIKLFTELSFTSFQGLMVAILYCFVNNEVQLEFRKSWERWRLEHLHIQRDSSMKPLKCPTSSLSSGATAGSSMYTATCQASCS
Procedure: as §1

T1 sequence (P47871 26-477): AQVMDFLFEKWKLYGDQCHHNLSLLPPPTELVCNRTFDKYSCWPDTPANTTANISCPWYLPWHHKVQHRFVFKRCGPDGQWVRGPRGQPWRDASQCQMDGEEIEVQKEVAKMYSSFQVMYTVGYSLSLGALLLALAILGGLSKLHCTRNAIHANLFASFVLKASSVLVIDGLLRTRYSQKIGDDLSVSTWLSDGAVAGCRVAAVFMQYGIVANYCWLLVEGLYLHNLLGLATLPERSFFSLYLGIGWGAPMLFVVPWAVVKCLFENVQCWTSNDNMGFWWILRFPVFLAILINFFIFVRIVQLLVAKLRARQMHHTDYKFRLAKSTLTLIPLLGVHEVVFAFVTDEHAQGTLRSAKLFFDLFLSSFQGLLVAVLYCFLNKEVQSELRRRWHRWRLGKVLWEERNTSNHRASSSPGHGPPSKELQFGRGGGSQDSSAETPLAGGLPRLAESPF

| Structure (SMILES) | EC50 [1] [nM] | EC50 [2] [nM] | activation of the receptors (in words) ([1]; both receptors (GCGR and GLP1R) not activated) |
| --- | --- | --- | --- |
| CSCC[C@H](NC(=O)[C@H](CC(C)C)NC(=O)[C@H](Cc1c[nH]c2ccccc12)NC(=O)[C@H](CCC(N)=O)NC(=O)[C@@H](NC(=O)[C@H](Cc1ccccc1)NC(=O)[C@H](CC(=O)O)NC(=O)[C@H](CCC(N)=O)NC(=O)[C@H](C)NC(=O)[C@H](CCCNC(=N)N)NC(=O)[C@H](CCCNC(=N)N)NC(=O)[C@H](CO)NC(=O)[C@H](CC(=O)O)NC(=O)[C@H](CC(C)C)NC(=O)[C@H](Cc1c[nH]c2ccccc12)NC(=O)[C@H](Cc1c[nH]cn1)NC(=O)[C@H](CO)NC(=O)[C@H](Cc1ccc(O)cc1)NC(=O)[C@H](CC(=O)O)NC(=O)[C@H](CO)NC(=O)[C@H](Cc1ccccc1)NC(=O)[C@H](Cc1ccccc1)NC(=O)[C@@H](NC(=O)CNC(=O)[C@H](CCC(N)=O)NC(=O)[C@H](CO)NC(=O)[C@@H](N)Cc1c[nH]cn1)[C@@H](C)O)C(C)C)C(=O)N[C@@H](CC(N)=O)C(=O)N[C@H](C(N)=O)[C@@H](C)O [Peptide 22] | 0.029 ± 0.001 | > 200 |  |
| CC(C)C[C@H](NC(=O)[C@H](Cc1ccc(O)cc1)NC(=O)[C@H](CCCCN)NC(=O)[C@H](CO)NC(=O)[C@H](Cc1ccc(O)cc1)NC(=O)[C@H](CC(=O)O)NC(=O)[C@H](CO)NC(=O)[C@@H](NC(=O)[C@H](Cc1ccccc1)NC(=O)[C@@H](NC(=O)CNC(=O)[C@H](CCC(N)=O)NC(=O)[C@H](CO)NC(=O)[C@@H](N)Cc1c[nH]cn1)[C@@H](C)O)[C@@H](C)O)C(=O)N[C@@H](CC(=O)O)C(=O)N[C@@H](Cc1c[nH]c2ccccc12)C(=O)N[C@@H](CCCNC(=N)N)C(=O)N[C@@H](CCCNC(=N)N)C(=O)N[C@@H](C)C(=O)N[C@@H](CCC(N)=O)C(=O)N[C@@H](CC(=O)O)C(=O)N[C@@H](Cc1ccccc1)C(=O)N[C@H](C(=O)N[C@@H](CCC(N)=O)C(=O)N[C@@H](Cc1c[nH]c2ccccc12)C(=O)N[C@@H](CC(C)C)C(=O)N[C@@H](CCC(N)=O)C(=O)N[C@@H](CC(N)=O)C(=O)N[C@H](C(N)=O)[C@@H](C)O)C(C)C [Peptide 23] | 0.019 ± 0.001 | 0.017 ± 0.001 |  |
| CC(C)C[C@H](NC(=O)[C@H](Cc1ccc(O)cc1)NC(=O)[C@H](CCCCN)NC(=O)[C@H](CO)NC(=O)[C@H](Cc1ccc(O)cc1)NC(=O)[C@H](CC(=O)O)NC(=O)[C@H](CO)NC(=O)[C@@H](NC(=O)[C@H](Cc1ccccc1)NC(=O)[C@@H](NC(=O)CNC(=O)[C@H](CCC(N)=O)NC(=O)[C@H](CO)NC(=O)[C@@H](N)Cc1c[nH]cn1)[C@@H](C)O)[C@@H](C)O)C(=O)N[C@@H](CC(=O)O)C(=O)N[C@@H](CO)C(=O)N[C@@H](CCCCN)C(=O)N[C@@H](CCCNC(=N)N)C(=O)N[C@@H](C)C(=O)N[C@@H](Cc1c[nH]cn1)C(=O)N[C@@H](CC(=O)O)C(=O)N[C@@H](Cc1ccccc1)C(=O)N[C@H](C(=O)N[C@@H](CCC(N)=O)C(=O)N[C@@H](Cc1c[nH]c2ccccc12)C(=O)N[C@@H](CC(C)C)C(=O)N[C@@H](CC(C)C)C(=O)N[C@@H](CC(N)=O)C(=O)N[C@H](C(N)=O)[C@@H](C)O)C(C)C [Peptide 24] (H-HSQGTFTSDYSKYLDSKRAHDFVQWLLNT-NH2) | 0.026 ± 0.001 | 0.018 ± 0.001 |  |
| CC[C@H](C)[C@H](NC(=O)[C@H](Cc1c[nH]c2ccccc12)NC(=O)[C@H](Cc1ccccc1)NC(=O)[C@H](CC(=O)O)NC(=O)[C@H](CCC(N)=O)NC(=O)[C@H](C)NC(=O)[C@H](CCCNC(=N)N)NC(=O)[C@H](CCCNC(=N)N)NC(=O)[C@H](CO)NC(=O)[C@H](CC(=O)O)NC(=O)[C@H](CC(C)C)NC(=O)[C@H](Cc1ccc(O)cc1)NC(=O)[C@H](CCCCN)NC(=O)[C@H](CO)NC(=O)[C@H](Cc1ccc(O)cc1)NC(=O)[C@H](CC(=O)O)NC(=O)[C@H](CO)NC(=O)[C@@H](NC(=O)[C@H](Cc1ccccc1)NC(=O)[C@@H](NC(=O)CNC(=O)[C@H](CCC(N)=O)NC(=O)[C@H](CO)NC(=O)[C@@H](N)Cc1c[nH]cn1)[C@@H](C)O)[C@@H](C)O)C(=O)N[C@@H](CC(=O)O)C(=O)N[C@@H](CC(C)C)C(=O)N[C@@H](CCSC)C(=O)N[C@@H](CC(N)=O)C(=O)N[C@H](C(N)=O)[C@@H](C)O [Peptide 25] | > 20 | > 20 | did not activate |
| CSCC[C@H](NC(=O)[C@H](CO)NC(=O)[C@@H](NC(=O)[C@H](CCSC)NC(=O)[C@@H](NC(=O)[C@H](Cc1ccccc1)NC(=O)[C@H](CC(=O)O)NC(=O)[C@H](CCC(N)=O)NC(=O)[C@H](C)NC(=O)[C@H](CCCNC(=N)N)NC(=O)[C@H](CCCNC(=N)N)NC(=O)[C@H](CO)NC(=O)[C@H](CC(=O)O)NC(=O)[C@H](CC(C)C)NC(=O)[C@H](Cc1ccc(O)cc1)NC(=O)[C@H](CCCCN)NC(=O)[C@H](CO)NC(=O)[C@H](Cc1ccc(O)cc1)NC(=O)[C@H](CC(=O)O)NC(=O)[C@H](CO)NC(=O)[C@@H](NC(=O)[C@H](Cc1ccccc1)NC(=O)[C@@H](NC(=O)CNC(=O)[C@H](CCC(N)=O)NC(=O)[C@H](CO)NC(=O)[C@@H](N)Cc1c[nH]cn1)[C@@H](C)O)[C@@H](C)O)C(C)C)[C@@H](C)O)C(=O)N[C@@H](CC(N)=O)C(=O)N[C@H](C(N)=O)[C@@H](C)O [Peptide 26] | > 200 | 8.96 ± 1.84 |  |
| CC[C@H](C)[C@H](NC(=O)[C@H](CC(C)C)NC(=O)[C@H](Cc1c[nH]c2ccccc12)NC(=O)[C@H](CC(=O)O)NC(=O)[C@@H](NC(=O)[C@H](Cc1ccccc1)NC(=O)[C@H](CC(=O)O)NC(=O)[C@H](CCC(N)=O)NC(=O)[C@H](C)NC(=O)[C@H](CCCNC(=N)N)NC(=O)[C@H](CCCNC(=N)N)NC(=O)[C@H](CO)NC(=O)[C@H](CC(=O)O)NC(=O)[C@H](CC(C)C)NC(=O)[C@H](Cc1ccc(O)cc1)NC(=O)[C@H](CCCCN)NC(=O)[C@H](CO)NC(=O)[C@H](Cc1ccc(O)cc1)NC(=O)[C@H](CC(=O)O)NC(=O)[C@H](CO)NC(=O)[C@@H](NC(=O)[C@H](Cc1ccccc1)NC(=O)[C@@H](NC(=O)CNC(=O)[C@H](CCC(N)=O)NC(=O)[C@H](CO)NC(=O)[C@@H](N)Cc1c[nH]cn1)[C@@H](C)O)[C@@H](C)O)C(C)C)C(=O)N[C@@H](CC(N)=O)C(=O)N[C@@H](CO)C(N)=O [Peptide 28] | 0.016 ± 0.001 | 0.007 ± 0.001 |  |
| CSCC[C@H](NC(=O)[C@H](CC(C)C)NC(=O)[C@H](Cc1c[nH]c2ccccc12)NC(=O)[C@H](CCC(N)=O)NC(=O)[C@@H](NC(=O)[C@H](Cc1ccccc1)NC(=O)[C@H](CC(=O)O)NC(=O)[C@H](CCC(N)=O)NC(=O)[C@H](C)NC(=O)[C@H](CCCNC(=N)N)NC(=O)[C@H](CCCNC(=N)N)NC(=O)[C@H](CO)NC(=O)[C@H](CC(=O)O)NC(=O)[C@H](CC(C)C)NC(=O)[C@H](Cc1ccc(O)cc1)NC(=O)[C@H](CCCCN)NC(=O)[C@H](CO)NC(=O)[C@H](Cc1ccc(O)cc1)NC(=O)[C@H](CC(=O)O)NC(=O)[C@H](CO)NC(=O)[C@@H](NC(=O)[C@H](Cc1ccccc1)NC(=O)[C@@H](NC(=O)CNC(=O)[C@H](Cc1c[nH]cn1)NC(=O)[C@H](CO)NC(=O)[C@@H](N)Cc1c[nH]cn1)[C@@H](C)O)[C@@H](C)O)C(C)C)C(=O)N[C@H](C(=O)N[C@H](C(N)=O)[C@@H](C)O)[C@@H](C)O [Peptide 29] | 0.032 ± 0.003 | 0.08 ± 0.006 |  |
| CC[C@H](C)[C@H](NC(=O)CNC(=O)[C@H](CCC(N)=O)NC(=O)[C@H](CO)NC(=O)[C@@H](N)Cc1c[nH]cn1)C(=O)N[C@@H](Cc1ccccc1)C(=O)N[C@@H](Cc1ccccc1)C(=O)N[C@@H](CO)C(=O)N[C@@H](CC(=O)O)C(=O)N[C@@H](Cc1ccc(O)cc1)C(=O)N[C@@H](CO)C(=O)N[C@@H](CCCCN)C(=O)N[C@@H](Cc1ccc(O)cc1)C(=O)N[C@@H](CC(C)C)C(=O)N[C@@H](CC(=O)O)C(=O)N[C@@H](CO)C(=O)N[C@@H](CCCNC(=N)N)C(=O)N[C@@H](CCCNC(=N)N)C(=O)N[C@@H](C)C(=O)N[C@@H](CCC(N)=O)C(=O)N[C@@H](CC(=O)O)C(=O)N[C@@H](Cc1ccccc1)C(=O)N[C@H](C(=O)N[C@@H](CCC(N)=O)C(=O)N[C@@H](Cc1c[nH]c2ccccc12)C(=O)N[C@@H](CC(C)C)C(=O)N[C@@H](CCSC)C(=O)N[C@@H](CC(N)=O)C(=O)N[C@H](C(N)=O)[C@@H](C)O)C(C)C [Peptide 30] (H-HSQGIFFSDYSKYLDSRRAQDFVQWLMNT-NH2) | 0.026 ± 0.004 | > 200 |  |
| CSCC[C@H](NC(=O)[C@H](CC(=O)O)NC(=O)[C@H](CC(C)C)NC(=O)[C@H](Cc1ccc(O)cc1)NC(=O)[C@H](CCCCN)NC(=O)[C@H](CO)NC(=O)[C@H](Cc1ccc(O)cc1)NC(=O)[C@H](CC(=O)O)NC(=O)[C@H](CO)NC(=O)[C@@H](NC(=O)[C@H](Cc1ccccc1)NC(=O)[C@@H](NC(=O)CNC(=O)[C@H](CCC(N)=O)NC(=O)[C@H](CO)NC(=O)[C@@H](N)Cc1c[nH]cn1)[C@@H](C)O)[C@@H](C)O)C(=O)N[C@@H](CCC(N)=O)C(=O)N[C@@H](CCCNC(=N)N)C(=O)N[C@@H](C)C(=O)N[C@@H](Cc1c[nH]cn1)C(=O)N[C@@H](CC(=O)O)C(=O)N[C@@H](Cc1ccccc1)C(=O)N[C@H](C(=O)N[C@@H](CCC(N)=O)C(=O)N[C@@H](Cc1c[nH]c2ccccc12)C(=O)N[C@@H](CC(C)C)C(=O)N[C@@H](CCSC)C(=O)N[C@@H](CC(N)=O)C(=O)N[C@H](C(N)=O)[C@@H](C)O)C(C)C [Peptide 32] | 0.014 ± 0.001 | 0.022 ± 0.001 |  |
| CSCC[C@H](NC(=O)[C@H](CCCNC(=N)N)NC(=O)[C@H](CO)NC(=O)[C@H](CC(=O)O)NC(=O)[C@H](CC(C)C)NC(=O)[C@H](Cc1ccc(O)cc1)NC(=O)[C@H](CCCCN)NC(=O)[C@H](CO)NC(=O)[C@H](Cc1ccc(O)cc1)NC(=O)[C@H](CC(=O)O)NC(=O)[C@H](CO)NC(=O)[C@@H](NC(=O)[C@H](Cc1ccccc1)NC(=O)[C@@H](NC(=O)CNC(=O)[C@H](CCC(N)=O)NC(=O)[C@H](CO)NC(=O)[C@@H](N)Cc1c[nH]cn1)[C@@H](C)O)[C@@H](C)O)C(=O)N[C@@H](C)C(=O)N[C@@H](Cc1ccc(O)cc1)C(=O)N[C@@H](CC(=O)O)C(=O)N[C@@H](Cc1ccccc1)C(=O)N[C@H](C(=O)N[C@@H](CCC(N)=O)C(=O)N[C@@H](Cc1c[nH]c2ccccc12)C(=O)N[C@@H](CC(C)C)C(=O)N[C@@H](CCSC)C(=O)N[C@@H](CC(N)=O)C(=O)N[C@H](C(N)=O)[C@@H](C)O)C(C)C [Peptide 33] (H-HSQGTFTSDYSKYLDSRMAYDFVQWLMNT-NH2) | 0.079 ± 0.033 | 0.059 ± 0.003 |  |
